Data published in patent US6737383B1, “Herbicidal oxadiazolidines” (priority 1999, dated 2004).

Key:
pigweed = assay: Test B pre/postemergence pigweed; assay type: in vivo, Amaranthus retroflexus
Outline: (§1)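 Herbicidal effect was estimated by eye on a ten-point control scale after plants spent twelve to sixteen days in a greenhouse following soil or foliar treatment. Foliar sprays targeted plants at one to four leaves; all doses were formulated in a non-phytotoxic solvent with surfactant.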

soybean = assay: Test B pre/postemergence soybean; assay type: in vivo, Glycine max
Outline: as §1

rape = assay: Test B pre/postemergence rape; assay type: in vivo, Brassica napus
Outline: as §1

wheat = assay: Test B pre/postemergence wheat; assay type: in vivo, Triticum aestivum
Outline: as §1

cocklebur = assay: Test B pre/postemergence cocklebur; assay type: in vivo, Xanthium strumarium
Outline: as §1

wild oat = assay: Test B pre/postemergence wild oat; assay type: in vivo, Avena fatua
Outline: as §1

blackgrass = assay: Test B pre/postemergence blackgrass; assay type: in vivo, Alopecurus myosuroides
Outline: as §1

bamyardgrass = assay: Test B flood test barnyardgrass; assay type: in vivo, Echinochloa crus-galli
Outline: (§2)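 Each value is a visual injury score relative to controls, with 10 meaning complete control and 0 no effect. Evaluation took place twelve to sixteen days after the 2-leaf-stage plants were treated and kept in the greenhouse.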

smallflower flatsedge = assay: Test B flood test smallflower flatsedge; assay type: in vivo, Cyperus difformis
Outline: as §2

giant foxtail = assay: Test B pre/postemergence giant foxtail; assay type: in vivo, Setaria faberii
Outline: as §1

rice = assay: Test B flood test rice; assay type: in vivo, Oryza sativa
Outline: as §2

sugar beet = assay: Test B pre/postemergence sugar beet; assay type: in vivo, Beta vulgaris
Outline: as §1

purple nutsedge = assay: Test B pre/postemergence purple nutsedge; assay type: in vivo, Cyperus rotundus
Outline: as §1

velvetleaf = assay: Test B pre/postemergence velvetleaf; assay type: in vivo, Abutilon theophrasti
Outline: as §1

morningglory = assay: Test B pre/postemergence morningglory; assay type: in vivo, Ipomoea hederacea
Outline: as §1

duck salad = assay: Test B flood test duck salad; assay type: in vivo, Heteranthera limosa
Outline: as §2

[1] = Preemergence, Rate 62 g/ha, scale of 0 to 10 where 0 is no effect and 10 is complete control
[2] = Preemergence, Rate 125 g/ha, 0 is no effect, 10 is complete control
[3] = Preemergence, Rate 250 g/ha, scale 0 to 10, 0 is no effect, 10 is complete control
[4] = Preemergence, Rate 500 g/ha, scale of 0 to 10 where 0 is no effect and 10 is complete control
[5] = Rate 62 g/ha, Postemergence, scale of 0 to 10 where 0 is no effect and 10 is complete control
[6] = Rate 125 g/ha, Postemergence, scale 0 to 10
[7] = Rate 500 g/ha, Postemergence, scale 0 to 10
[8] = Rate 62 g/ha, headed Pre-emergence (flood test species), scale 0 to 10 (0 no effect, 10 complete control)
[9] = Rate 125 g/ha, Pre-emergence, flood test species, scale 0 to 10 where 0 is no effect and 10 is complete control
[10] = Rate 250 g/ha, Pre-emergence, flood-test species, scale 0 to 10, 0 is no effect, 10 is complete control
[11] = Rate 500 g/ha, headed Pre-emergence (flood test species), scale 0 to 10 (0 no effect, 10 complete control)

Cc1nc(C)c(-n2c(=O)on(C(=O)N(c3ccc(F)cc3)C(C)C)c2=O)s1 [Compound 198]
Redroot pigweed plant response rating (pigweed; [1]): 0
Redroot pigweed plant response rating (0 to 10 scale) (pigweed; [2]): 0
Redroot pigweed plant response rating (pigweed; [3]): 0
Plant response rating, Redroot pigweed (pigweed; [4]): 0
Redroot pigweed plant response rating (pigweed; [5]): 0
Redroot pigweed plant response rating (pigweed; [6]): 0
Plant response rating (0 to 10; 0 is no effect, 10 is complete control), Redroot pigweed (pigweed; Rate 250 g/ha, Postemergence): 0
Redroot pigweed plant response rating (pigweed; [7]): 0
Soybean plant response rating (soybean; [1]): 0
Soybean plant response rating (0 to 10 scale) (soybean; [2]): 0
Soybean plant response rating (soybean; [3]): 0
Plant response rating, Soybean (soybean; [4]): 0
Soybean plant response rating (soybean; [5]): 0
Soybean plant response rating (soybean; [6]): 0
Plant response rating (0 to 10; 0 is no effect, 10 is complete control), Soybean (soybean; Rate 250 g/ha, Postemergence): 0
Soybean plant response rating (soybean; [7]): 1
Rape plant response rating (rape; [1]): 0
Rape plant response rating (0 to 10 scale) (rape; [2]): 0
Rape plant response rating (rape; [3]): 0
Plant response rating, Rape (rape; [4]): 0
Rape plant response rating (rape; [5]): 0
Rape plant response rating (rape; [6]): 0
Plant response rating (0 to 10; 0 is no effect, 10 is complete control), Rape (rape; Rate 250 g/ha, Postemergence): 0
Rape plant response rating (rape; [7]): 0
Wheat plant response rating (wheat; [1]): 0
Wheat plant response rating (wheat; [3]): 0
Plant response rating, Wheat (wheat; [4]): 0
Wheat plant response rating (wheat; [5]): 0
Wheat plant response rating (wheat; [6]): 0
Plant response rating (0 to 10; 0 is no effect, 10 is complete control), Wheat (wheat; Rate 250 g/ha, Postemergence): 0
Cocklebur plant response rating (cocklebur; [1]): 0
Cocklebur plant response rating (0 to 10 scale) (cocklebur; [2]): 0
Cocklebur plant response rating (cocklebur; [3]): 0
Plant response rating, Cocklebur (cocklebur; [4]): 0
Cocklebur plant response rating (cocklebur; [5]): 0
Cocklebur plant response rating (cocklebur; [6]): 0
Plant response rating (0 to 10; 0 is no effect, 10 is complete control), Cocklebur (cocklebur; Rate 250 g/ha, Postemergence): 0
Cocklebur plant response rating (cocklebur; [7]): 0
Wild oats plant response rating (wild oat; [1]): 0
Wild oats plant response rating (wild oat; [3]): 0
Plant response rating, Wild oats (wild oat; [4]): 0
Wild oats plant response rating (wild oat; [5]): 0
Wild oats plant response rating (wild oat; [6]): 0
Plant response rating (0 to 10; 0 is no effect, 10 is complete control), Wild oats (wild oat; Rate 250 g/ha, Postemergence): 0
Blackgrass plant response rating (blackgrass; [1]): 0
Blackgrass plant response rating (0 to 10 scale) (blackgrass; [2]): 0
Blackgrass plant response rating (blackgrass; [3]): 0
Plant response rating, Blackgrass (blackgrass; [4]): 0
Blackgrass plant response rating (blackgrass; [5]): 0
Blackgrass plant response rating (blackgrass; [6]): 0
Plant response rating (0 to 10; 0 is no effect, 10 is complete control), Blackgrass (blackgrass; Rate 250 g/ha, Postemergence): 0
Blackgrass plant response rating (blackgrass; [7]): 0
Barnyardgrass plant response rating (bamyardgrass; [8]): 0
Barnyardgrass plant response rating (bamyardgrass; [9]): 0
Barnyardgrass plant response rating (bamyardgrass; [10]): 0
Plant response rating, Barnyardgrass (bamyardgrass; [11]): 0
S. Flatsedge plant response rating (smallflower flatsedge; [8]): 0
S. Flatsedge plant response rating (smallflower flatsedge; [9]): 0
S. Flatsedge plant response rating (smallflower flatsedge; [10]): 0
S. Flatsedge plant response rating (smallflower flatsedge; Rate 500 g/ha, Pre-emergence, flood test species, scale 0 to 10 (0 no effect, 10 complete control)): 0
Giant foxtail plant response rating (giant foxtail; [1]): 0
Giant foxtail plant response rating (0 to 10 scale) (giant foxtail; [2]): 0
Giant foxtail plant response rating (giant foxtail; [3]): 0
Plant response rating, Giant foxtail (giant foxtail; [4]): 3
Giant foxtail plant response rating (giant foxtail; [5]): 0
Giant foxtail plant response rating (giant foxtail; [6]): 0
Plant response rating (0 to 10; 0 is no effect, 10 is complete control), Giant foxtail (giant foxtail; Rate 250 g/ha, Postemergence): 0
Giant foxtail plant response rating (giant foxtail; [7]): 0
Rice plant response rating (rice; [8]): 0
Rice plant response rating (rice; [9]): 0
Rice plant response rating (rice; [10]): 0
Plant response rating, Rice (rice; [11]): 0
Sugarbeets plant response rating (sugar beet; [1]): 0
Sugarbeets plant response rating (0 to 10 scale) (sugar beet; [2]): 0
Sugarbeets plant response rating (sugar beet; [3]): 0
Plant response rating, Sugarbeets (sugar beet; [4]): 0
Sugarbeets plant response rating (sugar beet; [5]): 0
Sugarbeets plant response rating (sugar beet; [6]): 0
Plant response rating (0 to 10; 0 is no effect, 10 is complete control), Sugarbeets (sugar beet; Rate 250 g/ha, Postemergence): 0
Sugarbeets plant response rating (sugar beet; [7]): 0
Nutsedge plant response rating (purple nutsedge; [1]): 0
Nutsedge plant response rating (0 to 10 scale) (purple nutsedge; [2]): 0
Nutsedge plant response rating (purple nutsedge; [3]): 0
Plant response rating, Nutsedge (purple nutsedge; [4]): 0
Nutsedge plant response rating (purple nutsedge; [5]): 0
Nutsedge plant response rating (purple nutsedge; [6]): 0
Plant response rating (0 to 10; 0 is no effect, 10 is complete control), Nutsedge (purple nutsedge; Rate 250 g/ha, Postemergence): 0
Nutsedge plant response rating (purple nutsedge; [7]): 0
Velvetleaf plant response rating (velvetleaf; [1]): 0
Velvetleaf plant response rating (velvetleaf; [3]): 0
Plant response rating, Velvetleaf (velvetleaf; [4]): 0
Velvetleaf plant response rating (velvetleaf; [5]): 0
Velvetleaf plant response rating (velvetleaf; [6]): 0
Plant response rating (0 to 10; 0 is no effect, 10 is complete control), Velvetleaf (velvetleaf; Rate 250 g/ha, Postemergence): 0
Morningglory plant response rating (morningglory; [1]): 0
Morningglory plant response rating (0 to 10 scale) (morningglory; [2]): 0
Morningglory plant response rating (morningglory; [3]): 0
Plant response rating, Morningglory (morningglory; [4]): 0
Morningglory plant response rating (morningglory; [5]): 0
Morningglory plant response rating (morningglory; [6]): 0
Plant response rating (0 to 10; 0 is no effect, 10 is complete control), Morningglory (morningglory; Rate 250 g/ha, Postemergence): 2
Morningglory plant response rating (morningglory; [7]): 3
Ducksalad plant response rating (duck salad; [8]): 0
Ducksalad plant response rating (duck salad; [9]): 0
Ducksalad plant response rating (duck salad; [10]): 0
Plant response rating, Ducksalad (duck salad; [11]): 0
